Source: BindingDB's records for doi:10.1021/jm950717a (Bristol-Myers Squibb, 1996)

The compounds below were run against T1, Dimer of Gag-Pol polyprotein [489-587] (Human immunodeficiency virus 1, UniProt P12497) (assay: Protease Inhibition Assay). Conditions: pH 5.5; 37 °C.
T1 construct: 489-587
Method: IC50 values are determined by inhibition of the cleavage of the peptidic substrate [V-S-Q-N-(beta-naphthylalanine)-P-I-V]. The IC50 value represents the concentration of inhibitor required to inhibit cleavage of substrate by 50%. The assay is performed by addition of purified enzyme to a mixture of inhibitor and the above substrate at pH 5.5. The reaction medium is incubated for 30 min at 37 °C followed by quenching with H3-PO4 and then analyzed by reverse phase HPLC UV (220 nm) detection.

SMILES	IC50
CC(C)(C)OC(=O)N[C@@H](Cc1ccccc1)[C@H](O)CNC[C@@H](O)[C@H](Cc1ccc(OCC(=O)N2CCOCC2)cc1)NC(=O)OC(C)(C)C [tert-butyl N-[(2S,3R)-4-{[(2R,3S)-3-{[(tert-butoxy)carbonyl]amino}-2-hydroxy-4-{4-[2-(morpholin-4-yl)-2-oxoethoxy]phenyl}butyl]amino}-3-hydroxy-1-phenylbutan-2-yl]carbamate]	100 nM
CC(C)(C)OC(=O)N[C@@H](Cc1ccccc1)[C@H](O)CNC[C@@H](O)[C@H](Cc1ccc(OCC(O)c2cccnc2)cc1)NC(=O)OC(C)(C)C (stereo partly drawn) [[1S-[1R*,2S*(2S*,3R*)]]-[3-[[3-[[(1,1-Dimethylethoxy)-carbonyl]amino]-2-hydroxy-4-[4-[2-hydroxy-2-(3-pyridinyl)ethoxy]phenyl]butyl]amino]-2-hydroxy-1-]	110 nM
CC(C)(C)OC(=O)N[C@@H](Cc1ccccc1)[C@H](O)CNC[C@@H](O)[C@H](Cc1ccc(OCCN2CCOCC2)cc1)NC(=O)OC(C)(C)C [tert-butyl N-[(2S,3R)-4-{[(2R,3S)-3-{[(tert-butoxy)carbonyl]amino}-2-hydroxy-4-{4-[2-(morpholin-4-yl)ethoxy]phenyl}butyl]amino}-3-hydroxy-1-phenylbutan-2-yl]carbamate]	100 nM
